Values of other authors, collected in patent publication US11344529B2, “Compositions and methods for the treatment of metabolic conditions” (Reven IP HoldCo LLC, priority 2017, dated 2022).

Key:
[1] = more than 500 postmenopausal women

CC(C)=CCC/C(C)=C/CC/C(C)=C/CC/C(C)=C/CC1=C(C)C(=O)c2ccccc2C1=O [Vitamin K2]
total cholesterol, lipid peroxidation, aortic ester cholesterol deposition, plasma factor X activity (compared to the control group): reduce total cholesterol levels, lipid peroxidation, ester cholesterol deposition in the aorta and factor X activity in plasma
atherosclerotic plaque progression in the aorta and pulmonary arteries (rabbits, 1-10 mg/kg daily for 10 weeks): inhibited the atherosclerotic plaque progression
association of intake with coronary calcification [1]: associated with the trend toward decreasing coronary calcification
